Assay [1] has as its target T1, Transcriptional enhancer factor TEF-1 (Homo sapiens, UniProt P28347). The assay can be described thus: Displacement of FAM- labeled YAP1 peptide (60 to 99 residues) from human TEAD1 (209 to 426 residues) expressed in Escherichia coli BL21 (DE3) cells incubated for 24 hrs by fluorescence polarization-based competitive binding assay. (In general: Polarisation of emitted light reports the rotation of a fluorescent probe.)

In assay [2] the target is T2, Transcriptional enhancer factor TEF-4 (Homo sapiens, UniProt Q15562). The assay can be described thus: Displacement of FAM- labeled YAP1 peptide (60 to 99 residues) from human TEAD2 (217 to 447 residues) expressed in Escherichia coli BL21 (DE3) cells incubated for 24 hrs by fluorescence polarization-based competitive binding assay.
T2 sequence (Q15562 whole entry, the tested form may be a part): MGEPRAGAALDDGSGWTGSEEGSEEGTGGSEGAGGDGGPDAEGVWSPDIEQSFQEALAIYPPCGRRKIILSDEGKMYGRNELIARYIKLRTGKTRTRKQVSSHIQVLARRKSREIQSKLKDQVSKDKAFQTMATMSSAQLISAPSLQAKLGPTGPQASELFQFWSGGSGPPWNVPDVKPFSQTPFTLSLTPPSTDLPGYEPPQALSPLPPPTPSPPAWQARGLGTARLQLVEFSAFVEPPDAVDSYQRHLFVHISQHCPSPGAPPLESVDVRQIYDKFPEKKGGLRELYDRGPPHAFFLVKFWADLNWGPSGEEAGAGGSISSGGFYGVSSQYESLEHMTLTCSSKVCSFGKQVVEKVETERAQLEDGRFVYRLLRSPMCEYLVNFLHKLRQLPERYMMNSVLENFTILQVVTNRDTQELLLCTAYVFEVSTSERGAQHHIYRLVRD
Assay [3] addresses T2, Transcriptional enhancer factor TEF-4. The assay can be described thus: Displacement of FAM- labeled YAP1 peptide (60 to 99 residues) from human TEAD2 (217 to 447 residues) expressed in Escherichia coli BL21 (DE3) cells assessed as maximum inhibition at 0.2 to 100 uM incubated for 24 hrs by fluorescence polarization-based competitive binding assay relative to control. The note with it: dose 0.2-100 µM.

Assay [4] can be described thus: Inhibition of TEAD in human MDA-MB-468 cells assessed as inhibition of CTGF transcriptional level incubated for 24 hrs by qRT-PCR assay. Format: cell-based. (In qPCR the cycle at which signal appears reflects the starting amount.)
Assay [5] has as its target T3, Transcriptional enhancer factor TEF-3 (Homo sapiens, UniProt Q15561). Description: Inhibition of TEAD4 (unknown origin) transfected in human HEK293 cells co-transfected with renilla plasmid assessed as maximum inhibition of transcriptional activity at 0.01 to 100 uM incubated for 24 hrs by dual Glo-luciferase reporter assay relative to control. To be noted: dose 0.01-100 µM. Format: cell-based.

The target in assay [6] is T3, Transcriptional enhancer factor TEF-3. The assay can be described thus: Inhibition of TEAD4 (unknown origin) transfected in human HEK293 cells co-transfected with renilla plasmid assessed as inhibition of transcriptional activity incubated for 24 hrs by dual Glo-luciferase reporter assay. Format: cell-based. On the technique in general: A reporter such as luciferase makes a cellular process visible.

For assay [7], the system named is Transcriptional enhancer factor TEF-3 (Homo sapiens), Q15561 [C367S]. The assay can be described thus: Displacement of FAM- labeled YAP1 peptide (60 to 99 residues) from human TEAD4 (217 to 434 residues) C367S mutant expressed in Escherichia coli BL21 (DE3) cells at 0.2 to 100 uM incubated for 24 hrs by fluorescence polarization-based competitive binding assay. The note with it: dose 0.2-100 µM.
Sequence of Transcriptional enhancer factor TEF-3 (Homo sapiens), Q15561 [C367S] (Q15561 whole entry C367S, the tested form may be a part): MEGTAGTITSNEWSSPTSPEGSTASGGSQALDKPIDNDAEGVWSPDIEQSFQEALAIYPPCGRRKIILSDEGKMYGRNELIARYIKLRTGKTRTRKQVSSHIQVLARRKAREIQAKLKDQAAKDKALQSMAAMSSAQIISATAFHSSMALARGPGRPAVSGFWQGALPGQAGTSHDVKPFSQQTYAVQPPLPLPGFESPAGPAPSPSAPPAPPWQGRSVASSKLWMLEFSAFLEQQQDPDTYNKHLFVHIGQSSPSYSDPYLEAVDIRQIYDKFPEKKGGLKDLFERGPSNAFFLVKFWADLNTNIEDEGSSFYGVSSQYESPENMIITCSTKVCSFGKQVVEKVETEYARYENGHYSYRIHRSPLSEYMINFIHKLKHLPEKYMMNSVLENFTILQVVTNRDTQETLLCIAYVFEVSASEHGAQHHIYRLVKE

The target in assay [8] is T4, Transcriptional enhancer factor TEF-5 (Homo sapiens, UniProt Q99594). The assay can be described thus: Displacement of FAM- labeled YAP1 peptide (60 to 99 residues) from human TEAD3 (210 to 427 residues) expressed in Escherichia coli BL21 (DE3) cells incubated for 24 hrs by fluorescence polarization-based competitive binding assay.
T4 sequence (Q99594 whole entry, the tested form may be a part): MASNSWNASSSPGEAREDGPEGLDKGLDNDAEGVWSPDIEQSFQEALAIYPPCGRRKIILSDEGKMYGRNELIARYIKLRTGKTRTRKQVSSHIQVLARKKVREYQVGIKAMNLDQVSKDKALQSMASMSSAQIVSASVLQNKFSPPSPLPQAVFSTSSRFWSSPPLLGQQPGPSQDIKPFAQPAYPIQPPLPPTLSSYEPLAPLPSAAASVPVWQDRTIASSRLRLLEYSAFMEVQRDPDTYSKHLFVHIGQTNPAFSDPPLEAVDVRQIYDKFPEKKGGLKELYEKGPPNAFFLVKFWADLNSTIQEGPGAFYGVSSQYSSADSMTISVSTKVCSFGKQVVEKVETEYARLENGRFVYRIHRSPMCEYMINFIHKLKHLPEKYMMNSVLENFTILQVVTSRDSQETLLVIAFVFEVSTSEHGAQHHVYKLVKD
Assay [9] concerns the target T2, Transcriptional enhancer factor TEF-4. The assay can be described thus: Inhibition of TEAD2 (unknown origin) transfected in human HEK293 cells co-transfected with renilla plasmid assessed as maximum inhibition of transcriptional activity at 10 uM incubated for 24 hrs by dual Glo-luciferase reporter assay relative to control. Format: cell-based.
In assay [10] the target is T1, Transcriptional enhancer factor TEF-1. Description: Inhibition of TEAD1 (unknown origin) transfected in human HEK293 cells co-transfected with renilla plasmid assessed as maximum inhibition of transcriptional activity at 10 uM incubated for 24 hrs by dual Glo-luciferase reporter assay relative to control. The assay is classed as cell-based.
The next assay deals with MDA-MB-468. Description: Inhibition of TEAD in human MDA-MB-468 cells assessed as maximal inhibition of CTGF transcriptional level at 0.01 to 100 uM incubated for 24 hrs by qRT-PCR assay relative to control. The assay is classed as cell-based. To be noted: dose 0.01-100 µM.
For assay [11], the target named is T3, Transcriptional enhancer factor TEF-3. Description: Displacement of FAM- labeled YAP1 peptide (60 to 99 residues) from human TEAD4 (217 to 434 residues) expressed in Escherichia coli BL21 (DE3) cells incubated for 24 hrs by fluorescence polarization-based competitive binding assay.
Assay [12] addresses T2, Transcriptional enhancer factor TEF-4. The assay can be described thus: Inhibition of TEAD2 (unknown origin) transfected in human HEK293 cells co-transfected with renilla plasmid assessed as inhibition of transcriptional activity incubated for 24 hrs by dual Glo-luciferase reporter assay. The assay is classed as cell-based.
Assay [13] shares this target. Description: Inhibition of TEAD2 (unknown origin) transfected in human HEK293 cells co-transfected with renilla plasmid assessed as maximum inhibition of transcriptional activity at 0.1 to 10 uM incubated for 24 hrs by dual Glo-luciferase reporter assay relative to control. The note with it: dose 0.1-10 µM. The assay is classed as cell-based.
For assay [14], the target named is T1, Transcriptional enhancer factor TEF-1. Description: Inhibition of TEAD1 (unknown origin) transfected in human HEK293 cells co-transfected with renilla plasmid assessed as inhibition of transcriptional activity incubated for 24 hrs by dual Glo-luciferase reporter assay. Format: cell-based.
Assay [15] has as its target T3, Transcriptional enhancer factor TEF-3. Description: Inhibition of TEAD4 (unknown origin) transfected in human HEK293 cells co-transfected with renilla plasmid assessed as maximum inhibition of transcriptional activity at 0.1 to 10 uM incubated for 24 hrs by dual Glo-luciferase reporter assay relative to control. The assay is classed as cell-based. The note with it: dose 0.1-10 µM.

Assay [16] addresses YAP1-TEAD4 (Homo sapiens) (UniProt P46937+Q15561). The assay can be described thus: Inhibition of NanoLuc-tagged TEAD4 (unknown origin)-Halo-Tagged YAP1 (unknown origin) protein-protein interaction transfected in HEK293 cells using furimazine as substrate at 10 uM incubated for 2 to 24 hrs by NanoBRET binding assay. Format: cell-based. The note with it: time 2-24 hrs.
Assay [17] addresses T1, Transcriptional enhancer factor TEF-1. The assay can be described thus: Inhibition of TEAD1 (unknown origin) transfected in human HEK293 cells co-transfected with renilla plasmid assessed as maximum inhibition of transcriptional activity at 0.1 to 10 uM incubated for 24 hrs by dual Glo-luciferase reporter assay relative to control. The note with it: dose 0.1-10 µM. The assay is classed as cell-based.

Assay [18] deals with T4, Transcriptional enhancer factor TEF-5. Description: Inhibition of TEAD3 (unknown origin) transfected in human HEK293 cells co-transfected with renilla plasmid assessed as inhibition of transcriptional activity incubated for 24 hrs by dual Glo-luciferase reporter assay. The assay is classed as cell-based.
[19] abbreviates: Homo sapiens, MDA-MB-468, 24 h, read-out: IC50.

Calls of active or inactive are those of the source. The rule behind the calls is not given here.

T1 sequence (P28347 whole entry, the tested form may be a part): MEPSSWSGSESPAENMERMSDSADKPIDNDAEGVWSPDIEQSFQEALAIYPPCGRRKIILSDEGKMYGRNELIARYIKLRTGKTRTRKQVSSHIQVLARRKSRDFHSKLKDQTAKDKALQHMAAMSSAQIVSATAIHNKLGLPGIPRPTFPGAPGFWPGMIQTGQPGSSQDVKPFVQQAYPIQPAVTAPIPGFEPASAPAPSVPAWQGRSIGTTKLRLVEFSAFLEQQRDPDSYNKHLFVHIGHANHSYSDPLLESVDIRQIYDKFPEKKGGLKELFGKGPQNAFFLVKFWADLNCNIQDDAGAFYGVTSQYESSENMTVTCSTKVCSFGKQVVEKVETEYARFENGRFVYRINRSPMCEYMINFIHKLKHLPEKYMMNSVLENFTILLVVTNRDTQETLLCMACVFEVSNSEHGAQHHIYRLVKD
T3 sequence (Q15561 whole entry): as the sequence (Q15561 whole entry C367S, the tested form may be a part) above, with S367C counted along it

Consider `N#CN1Cc2ccc(F)c(Nc3cccc(C(F)(F)F)c3)c2C1`, for which the IC50 (as a rule, the concentration needed to halve the response being measured) in assay [1] (read-out: IC50) was 200 nM; in assay [2], 2400 nM; in assay [4] (setting [19]), 300 nM; in [6] (read-out: IC50), 700 nM; in [8], “Not Active”; in assay [11] (read-out: IC50), 600 nM. The Imax in assay [3] was 37%; in assay [5], 35.6%; in the assay with MDA-MB-468, 50.3%. Besides, in assay [7], the inhibition (usually how much of the control response was suppressed) was “inactive”. Further, the inhibition entry in assay [9] and in assay [10] was “Active” in each case.
On to `N#CN1CC2CCCC(Nc3ccc(C(F)(F)F)cc3)C2C1` (stereo not given), for which the IC50 in assay [1] (read-out: IC50) was 1500 nM; in [2] it was 16100 nM; in assay [4] (mda-mb-468) it was “Not Active”; in assay [6] (hek293), “Not Active”; in [8] it was “Not Active”; in [11] (read-out: IC50), 20100 nM. For the same compound, in assay [3], the Imax is 39%. Moreover, in the assay on MDA-MB-468, the Imax result was “inactive”.
Consider `N#CN1Cc2cccc(Nc3ccc(C(F)(F)F)cc3)c2C1`, for which the IC50 in [1] (read-out: IC50) was 200 nM; in [2], 800 nM; in [4] (setting [19]), 1500 nM; in [6] (read-out: IC50), 2100 nM; in assay [8], “Not Active”; in [11], “Not Active”. Moreover, the results for the Imax (in assay [3]; in the assay on MDA-MB-468) were 33% and 59.6%, respectively.
For the compound `COc1ccc2c(c1Nc1cccc(C(F)(F)F)c1)CN(C#N)C2`, the half-maximal inhibitory concentration (IC50) in assay [1] (read-out: IC50) is 300 nM; in assay [2] it was 1700 nM; in assay [4] (setting [19]), 300 nM; in assay [6] (read-out: IC50) it was 300 nM; in [8] it was “Not Active”; in [11] (read-out: IC50) it was 200 nM. Further, the values for the Imax (in assay [3]; in assay [5]; with MDA-MB-468) were 42%, 41.3% and 45.3%, respectively. The inhibition result in [7] and in assay [10] was “inactive” throughout. In assay [9], the inhibition came out at 50%.
Take `N#CN1CC2CCCC(Nc3ccccc3C(F)(F)F)C2C1` (stereo not given): the IC50 result in assay [1] is “Not Active”; in assay [2], 7500 nM; in [4] (setting [19]) it was 2200 nM; in assay [6] (hek293), “Not Active”; in assay [8] it was “Not Active”; in assay [11], “Not Active”. In addition, the Imax in assay [3] turned out to be 20%; in the assay with MDA-MB-468 it was 41.1%.
For the compound `N#CN1CC2CCCC(Nc3cccc(C(F)(F)F)c3)C2C1` (stereo not given), the IC50 came out at 2200 nM in assay [12]; 1600 nM in assay [1] (read-out: IC50); 1600 nM in assay [14]; 27600 nM in assay [2]; 1100 nM in assay [4] (setting [19]); 400 nM in assay [6] (read-out: IC50). Moreover, the results for the IC50 entry in assay [8], in assay [18] and in [11] (read-out: IC50) were “Not Active”, 1200 nM and 51700 nM, respectively. Besides, the Imax in assay [13] amounted to 28.2%; in assay [3] it was 45%; in assay [5], 87.3%; in assay [15], 41.3%; in assay [17], 40%; with MDA-MB-468, 28.6%. The inhibition result in assay [16] and in assay [7] was “inactive” throughout.
On to `N#CN1Cc2cccc(Nc3ccccc3C(F)(F)F)c2C1`, for which the IC50 was 1300 nM in assay [1] (read-out: IC50); 2100 nM in [2]; 5500 nM in assay [4] (setting [19]); 10500 nM in assay [6] (read-out: IC50); “Not Active” in assay [8]; 5400 nM in [11] (read-out: IC50). Besides, the Imax was found to be 40% in assay [3], 98.7% in assay [5] and 36.7% in the assay with MDA-MB-468. Besides, in assay [7], the inhibition result is “inactive”.
